Data: US5760036A, “Aminediol protease inhibitors” (E. R. Squibb & Sons, Inc., priority 1995, dated 1998)
Structures can show the parent of a compound that is named as a salt. Where two headings read alike, the source gives them in different places.

Assays:
HIV protease = biological target: T1, HIV protease (Human immunodeficiency virus type 1 group M subtype B, UniProt P04585); test: HIV Protease Assay; assay type: biochemical
T1 construct: and purified protease
Summary of the method: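 At a single final concentration of 10 μM (4% DMSO), inhibitors were added to a 30-minute, 37° C reaction of purified enzyme with 450 μM H2N-Val-Ser-Gln-Asn-(β-naphthyl-alanine)-Pro-Val-Ile-OH at pH 5.5 (sodium acetate, BSA). Hydrolysis was quantified by reverse-phase HPLC with 220 nm detection after acid quench.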

[1] = test system: RF strain of HIV (CEM-SS cells); test: Cell Culture Anti-HIV Activity (cell viability, formazan); assay type: cell-based; details: Human immunodeficiency virus 1, CEM-SS, 144 h, CEM-SS cells, RF strain of HIV, multiplicity of infection 0.04, 6 days at 37° C., 450 nm; read-out: HIV (CEM Cells) IC50
Summary of the method: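 Half-log compound dilutions added to CEM-SS cells (5000/well) carrying HIV RF (MOI 0.04), 6 days, 37° C. Cell protection measured as formazan from tetrazolium, A450. IC50: drug level restoring infected-cell formazan to 50% of the uninfected untreated control.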

[2] = pH 5.5, 10 μM inhibitor, 4% DMSO, 450 μM substrate, pH 5.5, 30 minutes at 37° C., RP-HPLC, read-out: HIV Protease % Inhibition at 10 μM

SMILES	inhibition at 10 µM (HIV protease; pH 5.5, read-out: HIV Protease % Inhibition at 10 μM) [%]	IC50 [1] [nM]	inhibition at 10 µM (HIV protease; [2]) [%]
CC(C)(C)OC(=O)N[C@@H](CCc1ccccc1)[C@H](O)CNC[C@@H](O)[C@H](Cc1ccccc1)NC(=O)OC(C)(C)C [Compound 25, [1S-[1R*,2S*(2S*,3R* )]]-[3-[[3-[[(1,1-Dimethylethoxy)carbonyl]amino]-2-hydroxy-4-phenylbutyl]amino]-2-hydroxy-1-(2-phenylethyl))propyl]carbarmic acid, 1,1-dimethylethyl ester]	98	530	
CC(C)(C)OC(=O)N[C@@H](Cc1ccccc1)[C@H](O)CNC[C@@H](O)[C@H](Cc1ccccc1)NC(=O)OC1(C)CCOCC1 [Compound 166, [1S-(1R*,2S*)]-[Iminobis[2-hydroxy-1-(phenylmethyl)-3,1-propanediyl]]bis[carbamic acid], 1,1-dimethylethyl-4-methyltetrahydropyran-4-yl-ester]		1700	89
CC(C)(C)OC(=O)N[C@@H](Cc1ccccc1)[C@H](O)CNC[C@@H](O)[C@H](Cc1ccccc1)NC(=O)[C@@H](NC(=O)OCC1COC(=O)N1)C(C)(C)C (stereo partly drawn) [Compound 315, [S-[1R*,2S*(2S*,3R*)]]-[2,2-Dimethyl-l-[[[3-[[3-[[(1,1-dimethylethoxy)carbonyl]amino]-2-hydroxy-4-phenylbutyl]amino]-2-hydroxy-1-(phenylmethyl)-propyl]amino]carbonyl]propyl]carbamic acid, (2-oxo-4-oxazolidinyl)methyl ester]		1600	100
CC(C)(C)OC(=O)N[C@@H](Cc1ccccc1)[C@H](O)CNC[C@@H](O)[C@H](Cc1cccc(OCc2ccccc2)c1)NC(=O)OC(C)(C)C [Compound 28, [1S-[1R*,2S*(2S*,3R*)]]-[3-[[3-[[(1,1-Dimethylethoxy)-carbonyl]amino]-2-hydroxy-4-phenylbutyl]amino]-2-hydroxy-1-[[3-(phenylmethoxy)phenyl]methyl]propyl]carbamic acid, 1,1-dimethylethyl ester]		90	100
CC(C)OC(=O)N[C@@H](Cc1ccccc1)[C@H](O)CNC[C@@H](O)[C@H](Cc1ccccc1)NC(=O)OC(C)C [Compound 123, [R-(R*,S*)]-[Iminobis[2-hydroxy-1-(phenylmethyl)-3.1-propandiyl]biscarbamic acid, bis(1-methylethyl)ester]		1000	65
COCCOc1ccc(C[C@H](NC(=O)OC(C)(C)C)[C@H](O)CNC[C@@H](O)[C@H](Cc2ccccc2)NC(=O)OC(C)(C)C)cc1 [Compound 224, [1S-[1R*,2S*(2S*,3R*)]]-[3-[[3-[[(1,1-Dimethylethoxy)carbonyl]amino]-2-hydroxy-4-[4-(2-methoxyethoxy)phenyl]butyl]amino]-2-hydroxy-1-(phenylmethyl)propyl]carbamic acid, 1,1-dimethylethyl ester]		40	98
CC(C)(C)OC(=O)N[C@@H](Cc1ccccc1)[C@H](O)CNC[C@@H](O)[C@H](Cc1ccccc1)NC(=O)OC(C)(C)CCO [Compound 169, [1S-(1R*,2S*)]-Iminobis[2-hydroxy-1-(phenylmethyl)-3,1-propanediyl]]biscarbamic acid, 1,1-dimethylethyl-3-hydroxy-1,1-dimethylpropyl ester]		200	97
CNC(=O)N(C)[C@H](C(=O)N[C@@H](Cc1ccccc1)[C@H](O)CNC[C@@H](O)[C@H](Cc1ccccc1)NC(=O)OC(C)(C)C)C(C)(C)C (relative stereo) [Compound 342, [1R*,2S* (2S*, 3R*)]-N-[3-[[3-[[(1,1-Dimethylethoxy)carbonyl]amino]-2-hydroxy-4-phenylbutyl]amino]-2-hydroxy-1-(phenylmethyl)propyl]-N^2-[(methylamino)carbonyl]-N^2-3-dimethyl-L-valinamide]		70	99
CC(C)[C@H](NC(=O)CCn1[nH]c2ccccc2c1=O)C(=O)N[C@@H](Cc1ccccc1)[C@H](O)CNC[C@@H](O)[C@H](Cc1ccccc1)NC(=O)OC(C)(C)C (relative stereo) [Compound 250, [1R*,2S*(2S*,3R*)]-N^2-[3-(1,3-Dihydro-3-oxo-2H-indazol-2-yl)-1-oxopropyl]-N-[3-[[3-[[(1,1-dimethylethoxy)carbonyl]amino]-2-hydroxy-4-phenylbutyl]amino]-2-hydroxy-1-(phenylmethyl)propyl]-L-valinamide]		1500	100
CC(C)[C@@H](NC(=O)OCc1ccccc1)C(=O)N[C@@H](Cc1ccccc1)[C@H](O)CNC[C@@H](O)[C@H](Cc1ccccc1)NC(=O)OC(C)(C)C [Compound 71, [R-[1S*,2R*(2R*, 3S*)]]-N-[3-[[3-[[(1,1-Dimethylethoxy)carbonyllamino]2-hydroxy-4-phenylbutyl]amino]-2-hydroxy-1-phenylmethyl)propyl]-N^2-[(phenylmethoxy)-carbonyl]-D-valinamide]		1200	58
CC(C)(C)OC(=O)N[C@@H](Cc1ccccc1)C(=O)N[C@@H](Cc1ccccc1)[C@H](O)CNC[C@@H](O)[C@H](Cc1ccccc1)NC(=O)[C@H](Cc1ccccc1)NC(=O)OC(C)(C)C [Compound 38, [S-(1R*,2S*)]-[Iminobis[2-hydroxy-1-(phenylmethyl)-3,1-propanediyl]]-bisimino-bis[N^2-[(1,1-dimethylethoxy)carbonyl]-L-phenyl-alaninamide]]		> 4000	3
CC(C)(C)OC(=O)N[C@@H](Cc1ccccc1)[C@H](O)CNC[C@@H](O)[C@H](Cc1ccccc1)NC(=O)OC(C)(C)[C@H](O)CO [Compound 228, [1S-(1R*,2S*),(S*)]-[Iminobis[2-hydroxy-1-(phenylmethyl)-3,1-propanediyl]]biscarbamic acid, 2,3-dihydroxy-1,1-dimethylpropyl 1,1-dimethylethyl ester]		700	98
CC(C)(C)OC(=O)N[C@@H](Cc1ccccc1)[C@H](O)CNC[C@@H](O)[C@H](Cc1ccccc1)NC(=O)[C@@H](NC(=O)OCc1cnc2ccccc2n1)C(C)(C)C [Compound 311, [S-[1R*,2S*(2S*,3R*)]]-[2.2-Dimethyl-1-[[[3-[[(1,1-dimethylethoxy)carbonyl]amino]-2-hydroxy-4-phenylbutyl]amino]-2-hydroxy-1-(phenylmethyl)-propyl]aminocarbonyl]propyl]carbamic acid, (2-quinoxalinyl)methyl ester]		50	100
CC(C)[C@H](NC(=O)OCc1ccccc1)C(=O)N[C@@H](Cc1ccccc1)[C@H](O)CNC[C@@H](O)[C@H](Cc1ccccc1)NC(=O)[C@H](CC(N)=O)NC(=O)OCc1ccccc1 [Compound 112, [S-[1R*,2S*(2S*,3R*)]]-N-[2-Hydroxy-3-[[2-hydroxy-4-phenyl-3-[[N-[(phenyl-methoxy)carbonyl]-L-valyl]amino]butyl]amino]-1-(phenylmethyl)propyl]-N^2-[(phenylmethoxy)-carbonyl]-L-asparaginamide, monohydrochloride]		> 8600	100
